Like-named read-outs stand apart in the source and are kept apart here.
Key:
MMP-9 = biological target: T1, MMP-9 (Homo sapiens, UniProt P14780); assay: MMP-9 inhibition assay (fluorogenic peptide substrate); type: biochemical
T1 construct: purchased Sino Biological 10327-HNAH
In short: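 Hydrolysis of DNP-Pro-Leu-Gly-Met-Trp-Ser-Arg (25 μM final) was tracked kinetically at em 360 nm over 30 min. Enzymes, APMA-activated and at 10 nM (MMP-9) or 6.5 nM (MMP-2) final, sat 30 min at RT with inhibitor in pH 7.5 Tris buffer with CaCl2 and Brij 35 first. Logistic fitting of Vmax against concentration gave IC50, in triplicate.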

MMP-2 = biological target: T2, MMP-2 (Homo sapiens, UniProt P08253); assay: De novo T-DEL selection against MMP-2, NGS decoding; type: binding; details: MMP-2 selection, Figure 4a source data
T2 construct: purchased Sino Biological 10082-HNAH
T2 sequence (P08253 110-660): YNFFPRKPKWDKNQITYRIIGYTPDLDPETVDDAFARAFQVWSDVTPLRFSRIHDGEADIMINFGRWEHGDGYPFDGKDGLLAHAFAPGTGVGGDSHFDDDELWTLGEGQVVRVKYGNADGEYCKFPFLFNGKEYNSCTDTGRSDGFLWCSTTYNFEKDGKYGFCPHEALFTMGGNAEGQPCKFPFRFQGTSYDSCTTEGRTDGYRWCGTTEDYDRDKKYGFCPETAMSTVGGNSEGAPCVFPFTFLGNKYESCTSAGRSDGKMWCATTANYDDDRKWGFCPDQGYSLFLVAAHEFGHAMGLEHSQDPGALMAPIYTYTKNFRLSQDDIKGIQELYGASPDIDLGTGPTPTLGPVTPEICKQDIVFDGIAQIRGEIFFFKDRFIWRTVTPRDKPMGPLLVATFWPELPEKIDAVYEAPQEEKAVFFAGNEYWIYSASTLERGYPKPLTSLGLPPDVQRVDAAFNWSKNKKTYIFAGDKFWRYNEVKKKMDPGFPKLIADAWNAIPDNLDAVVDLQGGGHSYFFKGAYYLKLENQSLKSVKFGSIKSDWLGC
Source text: Matrix metalloproteinases (MMPs) are zinc-dependent endopeptidases capable of degrading and remodeling extracellular matrix components[46],[47]. They are attractive therapeutic targets as high expression levels were detected in various diseases, such as inflammatory diseases, and at different stages of cancers, including metastasis, invasion, and angiogenesis[47]–[53]. As shown in Supplementary Fig. 3c, we performed selections against the two gelatinases (human MMP-2 and human MMP-9) to identify binding fragments for later design and synthesis of small molecule inhibitors. After selection, the three sub-libraries were decoded, and the enrichment was calculated by dividing the post-selection fraction (count/total counts) by the pre-selection fraction (Fig. 4a and Supplementary Fig. 13).
4 µg of MMP-2/MMP-9 was dissolved in 100 µl of selection buffer containing 25 mM Tris-base, 10 mM CaCl2, 150 mM NaCl, 0.05% Tween 20, pH 7.5. 10 µl of 4-Aminophenylmercuric acetate (APMA) (100 mM) solution was added to the protein solution and incubated at 37 °C for 1 h. After activation, the solution was added on top of 40 µl pre-washed Ni-NTA resin and incubated for 30 min on a rotary shaker. The supernatant was discarded, and the resin was washed three times with the selection buffer.
For each independent selection, three sub-libraries were mixed in the selection buffer with a final concentration of 40 nM of each sub-library in 100 µl. The mixture was heat denatured at 90 °C for 1 min and slowly cooled down to allow the formation of the trio-pharmacophore library. The dynamic dual-pharmacophore DEL was provided by DyNAbind GmbH (Merck, DYNA001).
The assembled library was incubated with the protein-bound solid support for 2 h at RT on a rotary shaker. In parallel, selection on bare solid support served as the negative control to exclude promiscuous binders on the resin. After panning, the supernatant was discarded, and the resin was washed three times with 1 ml selection buffer. Finally, 100 µl of 50 mM Tris buffer, pH 7.4 was added to resuspend the resin and the resin was incubated at 95 °C for 5 min to denature the protein, release, and collect the bound library members.
The eluted library members were subjected to sample preparation for NGS. NGS preparation was achieved by two-step PCR. First, the individual selection was indexed using primers containing unique sequences corresponding to each selection. The amplified product was purified from 2% agarose gel. Second, the purified DNA from all selections were pooled in equal amount and subjected to the 2nd PCR step to attach sequences compatible with the NGS flow cell and the sequencing primers. NGS was performed by Novogene UK with Novaseq 6000. Raw data files (fastq files) obtained were decoded using a custom python script and excel. The sequence reads corresponding to each sample was retrieved by searching for the correct index unique to each selection. Then, the code region was extracted from each sequence and assigned to the corresponding identity. The count of each code in each selection sample was obtained by looping through the total reads and counting the occurrence of each code. The enrichment fold of each compound was calculated by first, dividing the count by the total count to get the abundance, second, the abundance after the selection was divided by the abundance of pre-selection to reflect the distribution change of the compound. Next, the enrichment fold was plotted against the count for each member of the library to give the scatter plots as in Fig. 4.

[1] = read-out: Mean (MMP-9, Supplementary fig 16)
[2] = read-out: Mean (MMP-9 dose-response, Supplementary fig 15)
[3] = read-out: Mean (dose-response, Supplementary fig 17)
[4] = read-out: Normalized activity (Mean)

T1 sequence (P14780 107-707 limits assumed): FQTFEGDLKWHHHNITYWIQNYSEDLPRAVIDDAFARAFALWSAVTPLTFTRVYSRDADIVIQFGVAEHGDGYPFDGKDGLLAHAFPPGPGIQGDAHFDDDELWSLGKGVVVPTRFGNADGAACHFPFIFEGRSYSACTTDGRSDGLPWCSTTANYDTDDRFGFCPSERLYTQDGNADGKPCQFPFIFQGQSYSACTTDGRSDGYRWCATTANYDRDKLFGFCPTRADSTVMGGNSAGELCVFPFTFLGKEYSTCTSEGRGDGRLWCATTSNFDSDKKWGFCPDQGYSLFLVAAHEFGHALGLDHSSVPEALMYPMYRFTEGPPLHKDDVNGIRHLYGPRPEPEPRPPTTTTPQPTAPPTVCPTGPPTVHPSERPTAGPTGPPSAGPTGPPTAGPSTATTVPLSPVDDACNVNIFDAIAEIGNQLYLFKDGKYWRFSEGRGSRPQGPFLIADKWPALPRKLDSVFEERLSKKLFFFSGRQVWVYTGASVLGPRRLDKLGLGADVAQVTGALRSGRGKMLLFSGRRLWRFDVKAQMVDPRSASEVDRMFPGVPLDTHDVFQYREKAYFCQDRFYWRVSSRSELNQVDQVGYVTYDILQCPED

Q: Which inhibitory effect (MMP-9; in words) does the source give for `O=C(O)c1cncc(O)c1` [Compound 828] here?
A: Its inhibitory effect is “high µM range”.

Q: What about the IC50 (MMP-9; mean ± SE, n.d: not detected, Fig. 5e prints no unit, µM, read-out: IC50) of the same molecule?
A: Its IC50 is 271 ± 12.4 µM.

Q: What about the remaining activity at 0.08 µM (MMP-9; [1]) of the same molecule?
A: Its remaining activity at 0.08 µM is 98.6%.

Q: What about the remaining activity at 0.39 µM (MMP-9; [1]) of the same molecule?
A: Its remaining activity at 0.39 µM is 97.4%.

Q: What about the remaining activity at 1.95 µM (MMP-9; [1]) of the same molecule?
A: Its remaining activity at 1.95 µM is 84.3%.

Q: What about the remaining activity at 9.75 µM (MMP-9; [1]) of the same molecule?
A: The remaining activity at 9.75 µM was 88.7%.

Q: And the remaining activity at 48.76 µM (MMP-9; [1])?
A: Its remaining activity at 48.76 µM is 80.3%.

Q: What about the remaining activity at 243.8 µM (MMP-9; [1]) of the same molecule?
A: Its remaining activity at 243.8 µM is 54.4%.

Q: And the remaining activity at 1219 µM (MMP-9; [1])?
A: Its remaining activity at 1219 µM is 0%.

Q: What about the remaining activity at 0.08 µM (MMP-9; [2]) of the same molecule?
A: Its remaining activity at 0.08 µM is 98.6%.

Q: What about the remaining activity at 0.39 µM (MMP-9; [2]) of the same molecule?
A: Its remaining activity at 0.39 µM is 97.4%.

Q: What about the remaining activity at 1.95 µM (MMP-9; [2]) of the same molecule?
A: Its remaining activity at 1.95 µM is 84.3%.

Q: What about the remaining activity at 9.75 µM (MMP-9; [2]) of the same molecule?
A: The remaining activity at 9.75 µM was 88.7%.

Q: And the remaining activity at 48.76 µM (MMP-9; [2])?
A: The remaining activity at 48.76 µM was 80.3%.

Q: What about the remaining activity at 243.8 µM (MMP-9; [2]) of the same molecule?
A: The remaining activity at 243.8 µM was 54.4%.

Q: What about the remaining activity at 1219 µM (MMP-9; [2]) of the same molecule?
A: Its remaining activity at 1219 µM is 0%.

Q: What about the remaining activity at 0.08 µM (MMP-9; [3]) of the same molecule?
A: Its remaining activity at 0.08 µM is 98.6%.

Q: What about the remaining activity at 0.39 µM (MMP-9; [3]) of the same molecule?
A: The remaining activity at 0.39 µM was 97.4%.

Q: And the remaining activity at 1.95 µM (MMP-9; [3])?
A: The remaining activity at 1.95 µM was 84.3%.

Q: What about the remaining activity at 9.75 µM (MMP-9; [3]) of the same molecule?
A: Its remaining activity at 9.75 µM is 88.7%.

Q: And the remaining activity at 48.76 µM (MMP-9; [3])?
A: Its remaining activity at 48.76 µM is 80.3%.

Q: What about the remaining activity at 243.8 µM (MMP-9; [3]) of the same molecule?
A: The remaining activity at 243.8 µM was 54.4%.

Q: And the remaining activity at 1219 µM (MMP-9; [3])?
A: Its remaining activity at 1219 µM is 0%.

Q: What about the remaining activity at 0.078016 µM (MMP-9; [4]) of the same molecule?
A: Its remaining activity at 0.078016 µM is 98.6%.

Q: And the remaining activity at 0.39008 µM (MMP-9; [4])?
A: Its remaining activity at 0.39008 µM is 97.4%.

Q: What about the remaining activity at 1.9504 µM (MMP-9; [4]) of the same molecule?
A: The remaining activity at 1.9504 µM was 84.3%.

Q: And the remaining activity at 9.752 µM (MMP-9; [4])?
A: The remaining activity at 9.752 µM was 88.7%.

Q: What about the remaining activity at 48.76 µM (MMP-9; [4]) of the same molecule?
A: The remaining activity at 48.76 µM was 80.3%.

Q: And the remaining activity at 243.8 µM (MMP-9; [4])?
A: Its remaining activity at 243.8 µM is 54.4%.

Q: And the remaining activity at 1219 µM (MMP-9; [4])?
A: The remaining activity at 1219 µM was 0%.

Q: What about the “MMP2 SL-C Enrichment Fold” value (MMP-2; enrichment fold of sub-library SL-C member) of the same molecule?
A: The value was 4.434.

Q: What about the “MMP2 SL-C Count” value (MMP-2; sequence count of sub-library SL-C member) of the same molecule?
A: Its value is 13025.
